Common to all, as to experiment: In vitro antibiotic activity, agar dilution method (Mueller-Hinton agar, NCCLS)
Holding throughout (format): cell-based
(In agar dilution the substance is mixed into plates at graded concentrations.)

In one test the test system is K. pneumoniae ATCC 29665. The note with it: Klebsiella pneumoniae, ATCC29665; agar dilution, Mueller-Hinton agar; read-out: MIC for K. pneumoniae ATCC 29665. As for the experimental part:
(§1) To measure the antibiotic activity of the compounds prepared by Examples, antibiotic activity test in vitro was performed by agar dilution method using Mueller-Hinton agar according to the NCCLS (National Committee for Clinical Laboratory Standards. 2000. Methods for dilution antimicrobial susceptibility tests for bacteria that grow aerobiocally. Approved standard, NCCLS document M7-M5, 5th ed, vol 20, no 2. National Committee for Clinical Laboratory Standards, Wayne, Pa.). The test strain was Escherichia coli (ATCC 25922), Klebsiella pneumonia (ATCC 29665) and Pseudomonas aeriginosa (PAO1).

A further test has as its system E. coli ATCC 25922. The note with it: Escherichia coli, ATCC25922; agar dilution, Mueller-Hinton agar; read-out: MIC for E. coli ATCC 25922. As for the experimental part: as §1
In another test the test system is P. aeruginosa PAO1. To be noted: Pseudomonas aeruginosa, PAO1; agar dilution, Mueller-Hinton agar; read-out: MIC for P. aeruginosa PAO1. The method, then: as §1

Values after ≈ are worked out from the molar mass of the structure shown.

As a reminder, the MIC is the lowest concentration that inhibits growth of the organism. Regarding `CC(CCN1CC=C(c2ccc(C#CCCCCl)cc2)CC1)(C(=O)NO)S(C)(=O)=O` (stereo not drawn) [Example 14, 4-(4-(4-(5-chloropent-1-yn-1-yl)phenyl)-3,6-dihydropyridin-1(2H)-yl)-N-hydroxy-2-methyl-2-(methylsulfonyl)butanamide], the values for the MIC with K. pneumoniae ATCC 29665, with E. coli ATCC 25922 and in the test with P. aeruginosa PAO1 were 1 to 8 µg/mL (≈ 2.21 to 17.7 µM), < 1 µg/mL and 1 to 8 µg/mL (≈ 2.21 to 17.7 µM), respectively.
Regarding `CCN(CC)CC#Cc1ccc(C2=CCN(CCC(C)(C(=O)NO)S(C)(=O)=O)CC2)cc1` (stereo not drawn) [Example 16, 4-(4-(4-(3-(diethylamino)prop-1-yn-1-yl)phenyl)-3,6-dihydropyridin-1(2H)-yl)-N-hydroxy-2-methyl-2-(methylsulfonyl)butanamide], the MIC in the test on K. pneumoniae ATCC 29665, in the test with E. coli ATCC 25922 and with P. aeruginosa PAO1 was 1 to 8 µg/mL (≈ 2.17 to 17.3 µM) throughout.
As for `CC(CCN1CC=C(c2ccc(C#CCCCOS(C)(=O)=O)cc2)CC1)(C(=O)NO)S(C)(=O)=O` (stereo not drawn) [Example 19, 5-(4-(1-(4-(hydroxyamino)-3-methyl-3-(methylsulfonyl)-4-oxobutyl)-1,2,3,6-tetrahydropyridin-4-yl)phenyl)pent-4-yn-1-yl methanesulfonate], the MIC with K. pneumoniae ATCC 29665 was 1 to 8 µg/mL; with E. coli ATCC 25922, < 1 µg/mL; in the test with P. aeruginosa PAO1, 1 to 8 µg/mL.
In the case of `CC(CCN1CC=C(c2ccc(C#CC3CC3)cc2)CC1)(C(=O)NO)S(C)(=O)=O` (stereo not drawn) [Example 4, 4-(4-(4-(cyclopropylethynyl)phenyl)-3,6-dihydropyridin-1(2H)-yl)-N-hydroxy-2-methyl-2-(methylsulfonyl)butanamide], the results for the MIC in the test with K. pneumoniae ATCC 29665, with E. coli ATCC 25922 and in the test on P. aeruginosa PAO1 were < 1 µg/mL, < 1 µg/mL and 1 to 8 µg/mL (≈ 2.4 to 19.2 µM), respectively.
Consider `CC(CCN1CC=C(c2ccc(C#Cc3cccnc3)cc2)CC1)(C(=O)NO)S(C)(=O)=O` (stereo not drawn) [Example 36, N-hydroxy-2-methyl-2-(methylsulfonyl)-4-(4-(4-(pyridin-3-ylethynyl)phenyl)-3,6-dihydropyridin-1(2H)-yl)butanamide], for which the MIC was 1 to 8 µg/mL (≈ 2.2 to 17.6 µM) in the test with K. pneumoniae ATCC 29665, < 1 µg/mL with E. coli ATCC 25922 and 1 to 8 µg/mL (≈ 2.2 to 17.6 µM) in the test with P. aeruginosa PAO1.
Consider `CC(CCN1CC=C(C#Cc2ccncc2)CC1)(C(=O)NO)S(C)(=O)=O` (stereo not drawn) [Example 52, N-hydroxy-2-methyl-2-(methylsulfonyl)-4-(4-(pyridin-4-ylethynyl)-3,6-dihydropyridin-1(2H)-yl)butanamide], for which the MIC in the test on K. pneumoniae ATCC 29665 is > 16 µg/mL; in the test with E. coli ATCC 25922, 8 to 16 µg/mL (≈ 21.2 to 42.4 µM); in the test with P. aeruginosa PAO1 it was > 16 µg/mL.
With `CC(CCN1CC=C(c2ccc(C#CCCCCN3CCOCC3)cc2)CC1)(C(=O)NO)S(C)(=O)=O` (stereo not drawn) [Example 30, N-hydroxy-2-methyl-2-(methylsulfonyl)-4-(4-(4-(6-morpholinohex-1-yn-1-yl)phenyl)-3,6-dihydropyridin-1(2H)-yl)butanamide], the MIC in the test with K. pneumoniae ATCC 29665 was 1 to 8 µg/mL (≈ 1.93 to 15.5 µM); in the test with E. coli ATCC 25922, < 1 µg/mL; in the test with P. aeruginosa PAO1, 1 to 8 µg/mL (≈ 1.93 to 15.5 µM).
In the case of `CC(CCN1CC=C(c2ccc(C#CCCCOC(N)=O)cc2)CC1)(C(=O)NO)S(C)(=O)=O` (stereo not drawn) [Example 27, 5-(4-(1-(4-(hydroxyamino)-3-methyl-3-(methylsulfonyl)-4-oxobutyl)-1,2,3,6-tetrahydropyridin-4-yl)phenyl)pent-4-yn-1-yl carbamate], the results for the MIC in the test on K. pneumoniae ATCC 29665, in the test on E. coli ATCC 25922 and in the test with P. aeruginosa PAO1 were 1 to 8 µg/mL (≈ 2.09 to 16.8 µM), < 1 µg/mL and 1 to 8 µg/mL (≈ 2.09 to 16.8 µM), respectively.
As for `CN(C)CC#Cc1c(F)cc(C2=CCN(CCC(C)(C(=O)NO)S(C)(=O)=O)CC2)cc1F` (stereo not drawn) [Example 32, 4-(4-(4-(3-(dimethylamino)prop-1-yn-1-yl)-3,5-difluorophenyl)-3,6-dihydropyridin-1(2H)-yl)-N-hydroxy-2-methyl-2-(methylsulfonyl)butanamide], the MIC is 1 to 8 µg/mL (≈ 2.13 to 17 µM) in the test on K. pneumoniae ATCC 29665, < 1 µg/mL with E. coli ATCC 25922 and 1 to 8 µg/mL (≈ 2.13 to 17 µM) with P. aeruginosa PAO1.
With `CC(CCN1CC=C(c2ccc(-c3ccc(CO)cc3)cc2)CC1)(C(=O)NO)S(C)(=O)=O` (stereo not drawn) [Example 65, N-hydroxy-4-(4-(4′-(hydroxymethyl)-[1,1′-biphenyl]-4-yl)-3,6-dihydropyridin-1(2H)-yl)-2-methyl-2-(methylsulfonyl)butanamide], the MIC in the test with K. pneumoniae ATCC 29665 is 8 to 16 µg/mL (≈ 17.4 to 34.9 µM); with E. coli ATCC 25922, < 1 µg/mL; in the test with P. aeruginosa PAO1 it was > 16 µg/mL.
Consider `CC(CCN1CC=C(c2ccc(-c3ccc(O)cc3)cc2)CC1)(C(=O)NO)S(C)(=O)=O` (stereo not drawn) [Example 59, N-hydroxy-4-(4-(4′-hydroxy-[1,1′-biphenyl]-4-yl)-3,6-dihydropyridin-1(2H)-yl)-2-methyl-2-(methylsulfonyl)butanamide], for which the results for the MIC in the test with K. pneumoniae ATCC 29665, in the test with E. coli ATCC 25922 and in the test on P. aeruginosa PAO1 were 8 to 16 µg/mL (≈ 18 to 36 µM), < 1 µg/mL and 8 to 16 µg/mL (≈ 18 to 36 µM), respectively.
Consider `CC(CCN1CC=C(c2ccc(C#CCOC(N)=O)cc2)CC1)(C(=O)NO)S(C)(=O)=O` (stereo not drawn) [Example 26, 3-(4-(1-(4-(hydroxyamino)-3-methyl-3-(methylsulfonyl)-4-oxobutyl)-1,2,3,6-tetrahydropyridin-4-yl)phenyl)prop-2-yn-1-yl carbamate], for which the MIC lay in the range of 8 to 16 µg/mL (≈ 17.8 to 35.6 µM) in the test on K. pneumoniae ATCC 29665, 1 to 8 µg/mL (≈ 2.22 to 17.8 µM) with E. coli ATCC 25922 and 1 to 8 µg/mL (≈ 2.22 to 17.8 µM) with P. aeruginosa PAO1.
On to `CC(CCN1CC=C(c2ccc(C#Cc3ccc(O)cc3)cc2)CC1)(C(=O)NO)S(C)(=O)=O` (stereo not drawn) [Example 37, N-hydroxy-4-(4-(4-((4-hydroxyphenyl)ethynyl)phenyl)-3,6-dihydropyridin-1(2H)-yl)-2-methyl-2-(methylsulfonyl)butanamide], for which the MIC in the test with K. pneumoniae ATCC 29665 was > 16 µg/mL; in the test on E. coli ATCC 25922, < 1 µg/mL; in the test with P. aeruginosa PAO1, > 16 µg/mL.
Consider `Cn1cnc(C#Cc2ccc(C3=CCN(CCC(C)(C(=O)NO)S(C)(=O)=O)CC3)cc2)c1` (stereo not drawn) [Example 38, N-hydroxy-2-methyl-4-(4-(4-((1-methyl-1H-imidazol-4-yl)ethynyl)phenyl)-3,6-dihydropyridin-1(2H)-yl)-2-(methylsulfonyl)butanamide], for which the MIC is 1 to 8 µg/mL (≈ 2.19 to 17.5 µM) with K. pneumoniae ATCC 29665, < 1 µg/mL in the test on E. coli ATCC 25922 and 1 to 8 µg/mL (≈ 2.19 to 17.5 µM) with P. aeruginosa PAO1.
Consider `COCC#Cc1ccc(C2=CCN(CCC(C)(C(=O)NO)S(C)(=O)=O)CC2)cc1` (stereo not drawn) [Example 23, N-hydroxy-4-(4-(4-(3-methoxyprop-1-yn-1-yl)phenyl)-3,6-dihydropyridin-1(2H)-yl)-2-methyl-2-(methylsulfonyl)butanamide], for which the MIC in the test with K. pneumoniae ATCC 29665 was 1 to 8 µg/mL (≈ 2.38 to 19 µM); in the test with E. coli ATCC 25922 it was < 1 µg/mL; with P. aeruginosa PAO1 it was 1 to 8 µg/mL (≈ 2.38 to 19 µM).
Take `CC(CCN1CC=C(c2ccc(C#Cc3ccccc3)cc2)CC1)(C(=O)NO)S(C)(=O)=O` (stereo not drawn) [Example 2, N-hydroxy-2-methyl-2-(methylsulfonyl)-4-(4-(4-(phenylethynyl)phenyl)-3,6-dihydropyridin-1(2H)-yl)butanamide]: the MIC in the test with K. pneumoniae ATCC 29665 is 1 to 8 µg/mL (≈ 2.21 to 17.7 µM); with E. coli ATCC 25922, < 1 µg/mL; in the test with P. aeruginosa PAO1, 1 to 8 µg/mL (≈ 2.21 to 17.7 µM).
`CC(=O)N1CC(C#Cc2ccc(C3=CCN(CCC(C)(C(=O)NO)S(C)(=O)=O)CC3)cc2)C1` (stereo not drawn) [Example 40, 4-(4-(4-((1-acetylazetidin-3-yl)ethynyl)phenyl)-3,6-dihydropyridin-1(2H)-yl)-N-hydroxy-2-methyl-2-(methylsulfonyl)butanamide]: the MIC in the test on K. pneumoniae ATCC 29665, with E. coli ATCC 25922 and with P. aeruginosa PAO1 was 1 to 8 µg/mL (≈ 2.11 to 16.9 µM) throughout.
With `CC(CCN1CC=C(c2ccc(-c3ccc(S(=O)(=O)N4CCC4)cc3)cc2)CC1)(C(=O)NO)S(C)(=O)=O` (stereo not drawn) [Example 68, 4-(4-(4′-(azetidin-1-ylsulfonyl)-[1,1′-biphenyl]-4-yl)-3,6-dihydropyridin-1(2H)-yl)-N-hydroxy-2-methyl-2-(methylsulfonyl)butanamide], the MIC in the test with K. pneumoniae ATCC 29665 is 1 to 8 µg/mL (≈ 1.83 to 14.6 µM); in the test with E. coli ATCC 25922 it was < 1 µg/mL; in the test on P. aeruginosa PAO1 it was 1 to 8 µg/mL (≈ 1.83 to 14.6 µM).
On to `COc1ccc(C#Cc2ccc(C3=CCN(CCC(C)(C(=O)NO)S(C)(=O)=O)CC3)cc2)cc1` (stereo not drawn) [Example 3, N-hydroxy-4-(4-(4-((4-methoxyphenyl)ethynyl)phenyl)-3,6-dihydropyridin-1(2H)-yl)-2-methyl-2-(methylsulfonyl)butanamide], for which the MIC in the test with K. pneumoniae ATCC 29665 is 1 to 8 µg/mL (≈ 2.07 to 16.6 µM); in the test with E. coli ATCC 25922, > 16 µg/mL; in the test with P. aeruginosa PAO1, > 16 µg/mL.
Regarding `CC(CCN1CC=C(c2ccc(-c3ccncc3)cc2)CC1)(C(=O)NO)S(C)(=O)=O` (stereo not drawn) [Example 55, N-hydroxy-2-methyl-2-(methylsulfonyl)-4-(4-(4-(pyridin-4-yl)phenyl)-3,6-dihydropyridin-1(2H)-yl)butanamide], the MIC with K. pneumoniae ATCC 29665, with E. coli ATCC 25922 and in the test with P. aeruginosa PAO1 was 1 to 8 µg/mL (≈ 2.33 to 18.6 µM) in each case.
Consider `CC(CCN1CC=C(c2ccc(-c3ccc(OS(C)(=O)=O)cc3)cc2)CC1)(C(=O)NO)S(C)(=O)=O` (stereo not drawn) [Example 69, 4′-(1-(4-(hydroxyamino)-3-methyl-3-(methylsulfonyl)-4-oxobutyl)-1,2,3,6-tetrahydropyridin-4-yl)-[1,1′-biphenyl]-4-yl methanesulfonate], for which the MIC in the test on K. pneumoniae ATCC 29665 was < 1 µg/mL; in the test with E. coli ATCC 25922 it was < 1 µg/mL; in the test with P. aeruginosa PAO1, 8 to 16 µg/mL.
With `CC(CCN1CC=C(c2ccc(-c3ccc(F)cc3)cc2)CC1)(C(=O)NO)S(C)(=O)=O` (stereo not drawn) [Example 58, 4-(4-(4′-fluoro-[1,1′-biphenyl]-4-yl)-3,6-dihydropyridin-1(2H)-yl)-N-hydroxy-2-methyl-2-(methylsulfonyl)butanamide], the MIC with K. pneumoniae ATCC 29665 was 1 to 8 µg/mL (≈ 2.24 to 17.9 µM); in the test with E. coli ATCC 25922 it was < 1 µg/mL; in the test on P. aeruginosa PAO1, > 16 µg/mL.
In the case of `CN1CC(C#Cc2ccc(C3=CCN(CCC(C)(C(=O)NO)S(C)(=O)=O)CC3)cc2)C1` (stereo not drawn) [Example 39, N-hydroxy-2-methyl-4-(4-(4-((1-methylazetidin-3-yl)ethynyl)phenyl)-3,6-dihydropyridin-1(2H)-yl)-2-(methylsulfonyl)butanamide], the MIC with K. pneumoniae ATCC 29665, in the test with E. coli ATCC 25922 and in the test with P. aeruginosa PAO1 was 8 to 16 µg/mL (≈ 18 to 35.9 µM) throughout.
